tested on: PFI-019, SEQ ID NO: 2; test: FLIPR functional cell-based assay for agonist activation (Fluo3 fluorescence), transiently transfected 293 cells expressing mouse Gα15; design: species or system human; details: PFI-019-transfected 293 cells (HEK 293 expressing mouse Gα15); fluorescence intensity versus time; concentration not given; Figures 3-6
Experimental: Fluorescence Imaging Plate Reader (FLIPR®) technology was employed as a means to detect activation of PFI-019 by agonists in a cell-based assay.
5 x 10^6 Human Embryonic Kidney (HEK) 293 cells expressing the mouse Gα15 gene (from here on called '293 cells'), were transiently transfected with 7.5 µg of PFI-019 (contained within the pcDNA4HIS-max-TOPO (Invitrogen) plasmid) vector, or vector alone, using Lipofectamine Plus® reagent (Gibco BRL) as per the manufacturer's protocol. The plasmid pcDNA4HIS-max-TOPO was used as it contains elements that up-regulate the level of gene transcription over standard pcDNA3.1 vectors. 24 hrs post-transfection, the cells were detached from the flask using Trypsin/EDTA solution (LTI) and seeded into a black sided, Poly-D-lysine-treated, 96-well plate (Becton Dickinson) at 5 x 10^4 cells/well density. The plates were left overnight to allow the cells to adhere to the bottom of the wells. The medium was removed from the cells and replaced with 100 µl warm (37°C) dye loading solution (50 µg Fluo3 (Molecular Probes) in 20 µl DMSO + 20% pluronic acid in DMSO, added to 11 ml Dulbecco's Modified Eagles Medium containing 1x Probenecid (100x Probenecid - 0.71 g Probenecid was dissolved in 5 ml 1M NaOH and 5 ml Dulbeccos' Phosphate Buffered Saline (PBS), per plate; Probenecid (Molecular Probes) inhibits activity of the anion transport protein, thus improving dye loading). The plates were then incubated for 1 hr at 37°C. Plates were subsequently washed with 250 µl of wash buffer per well (5 ml 100x Probenecid stock + 495 ml PBS, pH 7.4) 4 times. The plates were returned to the 37°C/5%CO2 incubator for 30 mins prior to processing within the FLIPR® instrument. The FLIPR® processing involved reading the fluorescence for all samples for 2 minutes; during this time the fluorescence baseline was determined for the first 10 seconds. The desired amount of compound was then automatically transferred to the wells, and the fluorescence was continuously monitored for the remainder of the time. All compounds were diluted in wash buffer
Using methodology as described in detail above, purinoceptor agonist compounds were identified as being able to functionally activate PFI-019.
Figures 3, 4, 5 and 6 show the response of PFI-019-transfected 293 cells to 2-chloroadenosine triphosphate tetrasodium (2-chloro-ATP; Fig. 3), 2-Methylthioadenosine triphosphate tetrasodium (2-methyl-thio-ATP; Fig. 4;); 2-Methylthioadenosine diphosphate trisodium (2-methyl-thio-ADP, Fig. 5) and Uridine triphosphate (Fig. 6). […] All compounds were purchased from Sigma.

| SMILES | stimulation of PFI-019 |
| --- | --- |
| Nc1nc(Cl)nc2c1ncn2[C@@H]1O[C@H](COP(=O)([O-])OP(=O)([O-])OP(=O)([O-])[O-])[C@@H](O)[C@H]1O.[Na+].[Na+].[Na+].[Na+] [2-chloro-ATP, 2-chloroadenosine triphosphate tetrasodium] | stimulation |
| CSc1nc(N)c2ncn([C@@H]3O[C@H](COP(=O)(O)OP(=O)(O)O)[C@@H](O)[C@H]3O)c2n1 [2-methyl-thio-ADP, 2-Methylthioadenosine diphosphate trisodium] | stimulation |
| CSc1nc(N)c2ncn([C@@H]3O[C@H](COP(=O)(O)OP(=O)(O)OP(=O)(O)O)[C@@H](O)[C@H]3O)c2n1 [2-methyl-thio-ATP, 2-Methylthioadenosine triphosphate tetrasodium] | stimulation |
| O=c1ccn([C@@H]2O[C@H](COP(=O)(O)OP(=O)(O)OP(=O)(O)O)[C@@H](O)[C@H]2O)c(=O)[nH]1 [UTP, Uridine triphosphate] | stimulation |

Reference: EP1219638A2, “G-protein coupled receptors having homology to the P2Y purinoreceptor 1 (P2Y1)” (Pfizer Limited, priority 2000, dated 2002)
